Starred links: 1 amine or outer side, 2 acyl side, 3 side chain; linkers in the order of their positions; H or OH if unused. Positions of bridges follow the written chain, without caps; N, C: chain ends. Non-standard residues stand in square brackets, D forms with d. Residues, ends and D or L forms follow the SMILES beside them. *: point of attachment. X1 = CC[C@H](C)[C@@H](N[*:1])[C@@H](O)CC(=O)O[C@H](C(=O)[C@H](C)C(=O)[*:2])C(C)C; NMeY = CN[C@@H](Cc1ccc(O)cc1)C(=O)O; dNMeL = CN[C@H](CC(C)C)C(=O)O; Pyruvoyl = CC(=O)C(=O)*
Assays:
Assay in all cases: microbe, parasite or virus in culture
Format in all cases: cell-based
Conditions in all cases: Severe acute respiratory syndrome coronavirus 2, HeLa-ACE2, 48 h
SARS-CoV-2 α (B.1.1.7) = test system: SARS-CoV-2 α (B.1.1.7)
SARS-CoV-2 β (B.1.351) = test system: SARS-CoV-2 β (B.1.351)
SARS-CoV-2 δ (B.1.617.2) = test system: SARS-CoV-2 δ (B.1.617.2)
SARS-CoV-2 μ (B.1.621) = test system: SARS-CoV-2 μ (B.1.621)
SARS-CoV-2 ο (B.1.1.529) = test system: SARS-CoV-2 ο (B.1.1.529)

CC[C@H](C)[C@H]1NC(=O)[C@@H](NC(=O)[C@@H](CC(C)C)N(C)C(=O)[C@@H]2CCCN2C(=O)C(C)=O)[C@@H](C)OC(=O)[C@H](Cc2ccc(OC)cc2)N(C)C(=O)[C@@H]2CCCN2C(=O)[C@H](CC(C)C)NC(=O)[C@@H](C)C(=O)[C@H](C(C)C)OC(=O)C[C@@H]1O [Plitidepsin] (Pyruvoyl-P[dNMeL]T[X1]LP[NMeY](Me); ester 3-C)
IC50 (SARS-CoV-2 α (B.1.1.7); read-out: Antiviral IC50): 52 pM
IC90 (SARS-CoV-2 α (B.1.1.7); read-out: Antiviral IC90): 161 pM
IC50 (SARS-CoV-2 β (B.1.351); read-out: Antiviral IC50): 77 pM
IC90 (SARS-CoV-2 β (B.1.351); read-out: Antiviral IC90): 419 pM
IC50 (SARS-CoV-2 δ (B.1.617.2); read-out: Antiviral IC50): 89 pM
IC90 (SARS-CoV-2 δ (B.1.617.2); read-out: Antiviral IC90): 511 pM
IC50 (SARS-CoV-2 μ (B.1.621); read-out: Antiviral IC50): 266 pM
IC90 (SARS-CoV-2 μ (B.1.621); read-out: Antiviral IC90): 1030 pM
IC50 (SARS-CoV-2 ο (B.1.1.529); read-out: Antiviral IC50): 291 pM
IC90 (SARS-CoV-2 ο (B.1.1.529); read-out: Antiviral IC90): 887 pM
